What is called Kd is the concentration at which binding is half-saturated.

Residues, ends and D or L forms follow the SMILES beside them.

For this assay, the target named is HLA-DR0901 protein (Homo sapiens, UniProt P01903+P01911, A100R/A103E/D57H/D86V/F55Y/F60I/F76Y/I96F/K127E/L162R/M171V/P40D/Q125H/Q99R/R33Q/R42F/S133A/S66N/T210M/V115G/W38K/Y107V/Y59G/Y89S). Briefly: Peptide binding competition assay, DR0901.
`CC[C@H](C)[C@H](NC(=O)[C@H](CCCCN)NC(=O)[C@H](CC(=O)O)NC(=O)[C@H](CC(C)C)NC(=O)[C@H](CO)NC(=O)[C@H](Cc1ccc(O)cc1)NC(=O)[C@H](CC(N)=O)NC(=O)[C@H](Cc1ccccc1)NC(=O)[C@H](CC(N)=O)NC(=O)[C@@H](N)CC(C)C)C(=O)N[C@H](C(=O)N[C@H](C(=O)N[C@@H](CC(=O)O)C(=O)O)C(C)C)[C@@H](C)CC` [LNFNYSLDKIIVD] (H-LNFNYSLDKIIVD-OH) yielded a Kd of 73 ± 16 nM.
As for `CC[C@H](C)[C@H](NC(=O)[C@H](CCCCN)NC(=O)[C@H](CC(=O)O)NC(=O)[C@H](CC(C)C)NC(=O)[C@H](CO)NC(=O)[C@H](Cc1ccc(O)cc1)NC(=O)[C@H](CC(N)=O)NC(=O)[C@H](Cc1ccccc1)NC(=O)[C@H](CC(N)=O)NC(=O)[C@@H](N)CC(C)C)C(=O)N[C@@H](CC(C)C)C(=O)N[C@H](C(=O)N[C@@H](CC(=O)O)C(=O)O)C(C)C` [LNFNYSLDKILVD] (H-LNFNYSLDKILVD-OH), the equilibrium dissociation constant (Kd) amounted to 330 ± 68 nM.
With `CC[C@H](C)[C@H](NC(=O)[C@H](CCCCN)NC(=O)[C@H](CC(=O)O)NC(=O)[C@H](CC(C)C)NC(=O)[C@H](CO)NC(=O)[C@H](Cc1ccc(O)cc1)NC(=O)[C@H](CC(N)=O)NC(=O)[C@H](Cc1ccccc1)NC(=O)[C@H](CC(N)=O)NC(=O)[C@@H](N)CC(C)C)C(=O)N[C@@H](CCSC)C(=O)N[C@H](C(=O)N[C@@H](CC(=O)O)C(=O)O)C(C)C` [LNFNYSLDKIMVD] (H-LNFNYSLDKIMVD-OH), the affinity, expressed as Kd, was 280 ± 61 nM.
With `CC[C@H](C)[C@H](NC(=O)[C@H](CCCCN)NC(=O)[C@H](CC(=O)O)NC(=O)[C@H](CC(C)C)NC(=O)[C@H](CO)NC(=O)[C@H](Cc1ccc(O)cc1)NC(=O)[C@H](CC(N)=O)NC(=O)[C@H](Cc1ccccc1)NC(=O)[C@H](CC(N)=O)NC(=O)[C@@H](N)CC(C)C)C(=O)N[C@@H](CC(N)=O)C(=O)N[C@H](C(=O)N[C@@H](CC(=O)O)C(=O)O)C(C)C` [LNFNYSLDKINVD] (H-LNFNYSLDKINVD-OH) the figure was 2600 nM; with `CC[C@H](C)[C@H](NC(=O)[C@H](CCCCN)NC(=O)[C@H](CC(=O)O)NC(=O)[C@H](CC(C)C)NC(=O)[C@H](CO)NC(=O)[C@H](Cc1ccc(O)cc1)NC(=O)[C@H](CC(N)=O)NC(=O)[C@H](Cc1ccccc1)NC(=O)[C@H](CC(N)=O)NC(=O)[C@@H](N)CC(C)C)C(=O)N1CCC[C@H]1C(=O)N[C@H](C(=O)N[C@@H](CC(=O)O)C(=O)O)C(C)C` [LNFNYSLDKIPVD] (H-LNFNYSLDKIPVD-OH), 1700 nM; with `CC[C@H](C)[C@H](NC(=O)[C@H](CCCCN)NC(=O)[C@H](CC(=O)O)NC(=O)[C@H](CC(C)C)NC(=O)[C@H](CO)NC(=O)[C@H](Cc1ccc(O)cc1)NC(=O)[C@H](CC(N)=O)NC(=O)[C@H](Cc1ccccc1)NC(=O)[C@H](CC(N)=O)NC(=O)[C@@H](N)CC(C)C)C(=O)N[C@@H](CCCNC(=N)N)C(=O)N[C@H](C(=O)N[C@@H](CC(=O)O)C(=O)O)C(C)C` [LNFNYSLDKIRVD] (H-LNFNYSLDKIRVD-OH), 6700 nM.
Molecule `CC[C@H](C)[C@H](NC(=O)[C@H](CCCCN)NC(=O)[C@H](CC(=O)O)NC(=O)[C@H](CC(C)C)NC(=O)[C@H](CO)NC(=O)[C@H](Cc1ccc(O)cc1)NC(=O)[C@H](CC(N)=O)NC(=O)[C@H](Cc1ccccc1)NC(=O)[C@H](CC(N)=O)NC(=O)[C@@H](N)CC(C)C)C(=O)N[C@@H](CO)C(=O)N[C@H](C(=O)N[C@@H](CC(=O)O)C(=O)O)C(C)C` [LNFNYSLDKISVD] (H-LNFNYSLDKISVD-OH) yielded a dissociation constant (Kd) of 770 ± 100 nM.
With `CC[C@H](C)[C@H](NC(=O)[C@H](CCCCN)NC(=O)[C@H](CC(=O)O)NC(=O)[C@H](CC(C)C)NC(=O)[C@H](CO)NC(=O)[C@H](Cc1ccc(O)cc1)NC(=O)[C@H](CC(N)=O)NC(=O)[C@H](Cc1ccccc1)NC(=O)[C@H](CC(N)=O)NC(=O)[C@@H](N)CC(C)C)C(=O)N[C@@H](Cc1c[nH]c2ccccc12)C(=O)N[C@H](C(=O)N[C@@H](CC(=O)O)C(=O)O)C(C)C` [LNFNYSLDKIWVD] (H-LNFNYSLDKIWVD-OH) the figure was 530 ± 50 nM.
On to `CC[C@H](C)[C@H](NC(=O)[C@H](CCCCN)NC(=O)[C@H](CC(=O)O)NC(=O)[C@H](CC(C)C)NC(=O)[C@H](CO)NC(=O)[C@H](Cc1ccc(O)cc1)NC(=O)[C@H](CC(N)=O)NC(=O)[C@H](Cc1ccccc1)NC(=O)[C@H](CC(N)=O)NC(=O)[C@@H](N)CC(C)C)C(=O)N[C@@H](Cc1ccc(O)cc1)C(=O)N[C@H](C(=O)N[C@@H](CC(=O)O)C(=O)O)C(C)C` [LNFNYSLDKIYVD] (H-LNFNYSLDKIYVD-OH), for which the Kd amounted to 240 ± 33 nM.
The result for `CC[C@H](C)[C@H](NC(=O)[C@H](CCSC)NC(=O)[C@H](CC(=O)O)NC(=O)[C@H](CC(C)C)NC(=O)[C@H](CO)NC(=O)[C@H](Cc1ccc(O)cc1)NC(=O)[C@H](CC(N)=O)NC(=O)[C@H](Cc1ccccc1)NC(=O)[C@H](CC(N)=O)NC(=O)[C@@H](N)CC(C)C)C(=O)N[C@H](C(=O)N[C@H](C(=O)N[C@@H](CC(=O)O)C(=O)O)C(C)C)[C@@H](C)CC` [LNFNYSLDMIIVD] (H-LNFNYSLDMIIVD-OH) reads 24 ± 5 nM; that for `CC[C@H](C)[C@H](NC(=O)[C@H](CC(N)=O)NC(=O)[C@H](CC(=O)O)NC(=O)[C@H](CC(C)C)NC(=O)[C@H](CO)NC(=O)[C@H](Cc1ccc(O)cc1)NC(=O)[C@H](CC(N)=O)NC(=O)[C@H](Cc1ccccc1)NC(=O)[C@H](CC(N)=O)NC(=O)[C@@H](N)CC(C)C)C(=O)N[C@H](C(=O)N[C@H](C(=O)N[C@@H](CC(=O)O)C(=O)O)C(C)C)[C@@H](C)CC` [LNFNYSLDNIIVD] (H-LNFNYSLDNIIVD-OH), 27 ± 1 nM; that for `CC[C@H](C)[C@H](NC(=O)[C@@H](NC(=O)[C@@H]1CCCN1C(=O)[C@H](CC(=O)O)NC(=O)[C@H](CC(C)C)NC(=O)[C@H](CO)NC(=O)[C@H](Cc1ccc(O)cc1)NC(=O)[C@H](CC(N)=O)NC(=O)[C@H](Cc1ccccc1)NC(=O)[C@H](CC(N)=O)NC(=O)[C@@H](N)CC(C)C)[C@@H](C)CC)C(=O)N[C@H](C(=O)N[C@@H](CC(=O)O)C(=O)O)C(C)C` [LNFNYSLDPIIVD] (H-LNFNYSLDPIIVD-OH), 36 ± 12 nM.
The molecule `CC[C@H](C)[C@H](NC(=O)[C@H](CCCNC(=N)N)NC(=O)[C@H](CC(=O)O)NC(=O)[C@H](CC(C)C)NC(=O)[C@H](CO)NC(=O)[C@H](Cc1ccc(O)cc1)NC(=O)[C@H](CC(N)=O)NC(=O)[C@H](Cc1ccccc1)NC(=O)[C@H](CC(N)=O)NC(=O)[C@@H](N)CC(C)C)C(=O)N[C@H](C(=O)N[C@H](C(=O)N[C@@H](CC(=O)O)C(=O)O)C(C)C)[C@@H](C)CC` [LNFNYSLDRIIVD] (H-LNFNYSLDRIIVD-OH) returned a Kd of 53 ± 10 nM.
For `CC[C@H](C)[C@H](NC(=O)[C@H](CO)NC(=O)[C@H](CC(=O)O)NC(=O)[C@H](CC(C)C)NC(=O)[C@H](CO)NC(=O)[C@H](Cc1ccc(O)cc1)NC(=O)[C@H](CC(N)=O)NC(=O)[C@H](Cc1ccccc1)NC(=O)[C@H](CC(N)=O)NC(=O)[C@@H](N)CC(C)C)C(=O)N[C@H](C(=O)N[C@H](C(=O)N[C@@H](CC(=O)O)C(=O)O)C(C)C)[C@@H](C)CC` [LNFNYSLDSIIVD] (H-LNFNYSLDSIIVD-OH), the dissociation constant Kd is 110 ± 45 nM.
With `CC[C@H](C)[C@H](NC(=O)[C@H](Cc1ccc(O)cc1)NC(=O)[C@H](CC(=O)O)NC(=O)[C@H](CC(C)C)NC(=O)[C@H](CO)NC(=O)[C@H](Cc1ccc(O)cc1)NC(=O)[C@H](CC(N)=O)NC(=O)[C@H](Cc1ccccc1)NC(=O)[C@H](CC(N)=O)NC(=O)[C@@H](N)CC(C)C)C(=O)N[C@H](C(=O)N[C@H](C(=O)N[C@@H](CC(=O)O)C(=O)O)C(C)C)[C@@H](C)CC` [LNFNYSLDYIIVD] (H-LNFNYSLDYIIVD-OH), binding was characterised by a dissociation constant (Kd) of 41 ± 10 nM. Compared with the last molecule, the Kd is about 2.7-fold lower.

The values above are taken from article PMC4061985 (Journal of immunology (Baltimore, Md. : 1950), 2009).
